Patent US12264134B2 (Merck Sharp & Dohme LLC, priority 2018, dated 2025)

Biological target: IDO1 (Homo sapiens, UniProt P14902)
Assay: IDO1 Cellular Assay in HeLa Cells Stimulated with IFNγ
Format: cell-based
Details: read-out: HeLa Cell Potency, IC50

Sequence of IDO1 (P14902 whole entry): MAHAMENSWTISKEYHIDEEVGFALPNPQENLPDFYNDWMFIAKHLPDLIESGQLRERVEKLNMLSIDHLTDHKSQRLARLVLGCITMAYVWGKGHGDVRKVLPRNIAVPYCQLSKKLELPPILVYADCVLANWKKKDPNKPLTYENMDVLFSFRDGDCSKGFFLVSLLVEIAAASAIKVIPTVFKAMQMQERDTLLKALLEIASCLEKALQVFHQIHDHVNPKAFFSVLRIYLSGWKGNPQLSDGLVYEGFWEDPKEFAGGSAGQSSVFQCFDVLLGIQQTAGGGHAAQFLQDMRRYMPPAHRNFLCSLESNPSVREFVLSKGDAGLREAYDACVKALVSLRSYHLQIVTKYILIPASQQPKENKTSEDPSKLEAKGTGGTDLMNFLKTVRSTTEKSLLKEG

Row | SMILES | IC50
1 | Cc1cccc(N2CCN(C(=O)Cn3nc(C(=O)N4CCN(C(=O)C(C)(C)O)CC4)c4c3CCC4)CC2)c1C [Example 117, 1-[4-(1-{2-[4-(2,3-dimethylphenyl)piperazin-1-yl]-2-oxoethyl}-1,4,5,6-tetrahydrocyclopenta[c]pyrazole-3-carbonyl)piperazin-1-yl]-2-hydroxy-2-methylpropan-1-one] | 15.1 nM
2 | Cc1cccc(N2CCN(C(=O)Cn3nc(C(=O)N4CCC(O)(CF)C4)c4c3CCC4)CC2)c1C (stereo not shown) [Example 485, 1-(4-(2,3-dimethylphenyl)piperazin-1-yl)-2-(3-(3-(fluoromethyl)-3-hydroxypyrrolidine-1-carbonyl)-5,6-dihydro-cyclopenta[c]pyrazol-1(4H)-yl)ethanone] | 47.5 nM
3 | Cc1cccc(N2CCN(C(=O)Cn3nc(C(=O)N4CCN(C(=O)CO)C[C@H]4C)c4c3CCC4)CC2)c1C [Example 402, (R)-1-(4-(2,3-dimethylphenyl)piperazin-1-yl)-2-(3-(4-(2-hydroxyacetyl)-2-methylpiperazine-1-carbonyl)-5,6-dihydrocyclopenta[c]pyrazol-1(4H)-yl)ethanone] | 3.58 nM
4 | Cc1ccc(N2CCN(C(=O)Cn3nc(C(=O)N4C[C@@H](C)O[C@@H](C)C4)c4c3CCC4)CC2)cc1 [Example 34, 2-{3-[(2R,6S)-2,6-dimethylmorpholine-4-carbonyl]-5,6-dihydrocyclopenta[c]pyrazol-1(4H)-yl}-1-[4-(4-methylphenyl)piperazin-1-yl]ethan-1-one] | 142 nM
5 | Cc1cccc(N2CCN(C(=O)Cn3nc(C(=O)N4CC[C@H]5[C@@H](C4)NC(=O)N5C)c4c3C[C@H]3C[C@@H]43)CC2)c1C [Example 237, (3aR,7aS)-5-[(3bR,4aR)-1-{2-[4-(2,3-dimethylphenyl)piperazin-1-yl]-2-oxoethyl}-3b,4,4a,5-tetrahydro-1H-cyclopropa[3,4]cyclopenta[1,2-c]pyrazole-3-carbonyl]-1-methyloctahydro-2H-imidazo[4,5-c]pyridin-2-one] | 79.1 nM
6 | Cc1cccc(N2CCN(C(=O)Cn3nc(C(=O)N4CC5(CCN(C)C5)C4)c4c3C[C@H]3C[C@@H]43)CC2)c1C [Example 243, 1-[4-(2,3-dimethylphenyl)piperazin-1-yl]-2-[(3bR,4aR)-3-(6-methyl-2,6-diazaspiro[3.4]octane-2-carbonyl)-3b,4,4a,5-tetrahydro-1H-cyclopropa[3,4]cyclopenta[1,2-c]pyrazol-1-yl]ethan-1-one] | 160 nM
7 | Cc1c(C(F)F)cccc1N1CCN(C(=O)Cn2nc(C(=O)N3CCO[C@H](CO)C3)c3c2C[C@H]2C[C@@H]32)CC1 [Example 349, 1-(4-(3-(difluoromethyl)-2-methylphenyl)piperazin-1-yl)-2-((3bR,4aR)-3-((S)-2-(hydroxymethyl)morpholine-4-carbonyl)-3b,4,4a,5-tetrahydro-1H-cyclopropa[3,4]cyclopenta[1,2-c]pyrazol-1-yl)ethanone] | 4.46 nM
8 | Cc1cccc(N2CCN(C(=O)Cn3nc(C(=O)N4CCC(O)(CF)C4)c4c3CCC4)CC2)c1C (single isomer, unassigned) [Example 482, (R or S)-1-(4-(2,3-dimethylphenyl)piperazin-1-yl)-2-(3-(3-(fluoromethyl)-3-hydroxypyrrolidine-1-carbonyl)-5,6-dihydro-cyclopenta[c]pyrazol-1(4H)-yl)ethanone] | 22.3 nM
9 | O=C(Cn1nc(C(=O)N2CCC(O)CC2)c2c1CCC2)N1CCN(C2CCCc3ccccc32)CC1 (single isomer, unassigned) [Example 431] | 3440 nM
10 | Cc1c(Cl)ccnc1N1CCN(C(=O)Cn2nc(C(=O)N3CCC(O)CC3)c3c2CCCC3)C2(CC2)C1 [Example 408, 1-(7-(4-chloro-3-methylpyridin-2-yl)-4,7-diazaspiro[2.5]octan-4-yl)-2-(3-(4-hydroxypiperidine-1-carbonyl)-4,5,6,7-tetrahydro-1H-indazol-1-yl)ethanone] | 4.93 nM
11 | Cc1cccc(N2CCN(C(=O)Cn3nc(C(=O)N4CC5CCC(C4)N5C)c4c3C[C@H]3C[C@@H]43)CC2)c1C [Example 270, 1-[4-(2,3-dimethylphenyl)piperazin-1-yl]-2-[(3bR,4aR)-3-(8-methyl-3,8-diazabicyclo[3.2.1]octane-3-carbonyl)-3b,4,4a,5-tetrahydro-1H-cyclopropa[3,4]cyclopenta[1,2-c]pyrazol-1-yl]ethan-1-one] | 5.75 nM
12 | Cc1c(N2CCN(C(=O)Cn3nc(C(=O)N4C[C@@H](C)O[C@@H](C)C4)c4c3CCC4)CC2)ccc(F)c1F [Example 49, 1-[4-(3,4-difluoro-2-methylphenyl)piperazin-1-yl]-2-{3-[(2R,6S)-2,6-dimethylmorpholine-4-carbonyl]-5,6-dihydrocyclopenta[c]pyrazol-1(4H)-yl}ethan-1-one] | 13.5 nM

Next, values leading:

Row | IC50 | SMILES
13 | 31 nM | Cc1cccc(N2CCN(C(=O)Cn3nc(C(=O)N4CCC(OCCO)CC4)c4c3CCC4C(F)F)CC2)c1C (single isomer, unassigned) [Example 13, 2-[4-(difluoromethyl)-3-[4-(2-hydroxyethoxy)piperidine-1-carbonyl]-5,6-dihydro-4H-cyclopenta[c]pyrazol-1-yl]-1-[4-(2,3-dimethylphenyl)piperazin-1-yl]ethanone]
14 | 19.9 nM | Cc1cccc(N2CCN(C(=O)Cn3nc(C(=O)N4CCC(O)CC4)c4c3CCC4C(F)F)CC2)c1C (single isomer, unassigned) [Example 15, 2-[4-(difluoromethyl)-3-(4-hydroxypiperidine-1-carbonyl)-5,6-dihydro-4H-cyclopenta[c]pyrazol-1-yl]-1-[4-(2,3-dimethylphenyl)piperazin-1-yl]ethanone]
15 | 27.5 nM | Cc1cccc(N2CCN(C(=O)Cn3nc(C(=O)N4CCN(C(=O)CO)CC4)c4c3CC(F)(F)CC4)CC2)c1C [Example 22, 2-[6,6-difluoro-3-[4-(2-hydroxyacetyl)piperazine-1-carbonyl]-5,7-dihydro-4H-indazol-1-yl]-1-[4-(2,3-dimethylphenyl)piperazin-1-yl]ethanone]
16 | 90.9 nM | Cc1cccc(N2CCN(C(=O)Cn3nc(C(=O)N4CCC(F)(F)[C@@H](O)C4)c4c3CCC4)CC2)c1C (single isomer, unassigned) [Example 213, 2-[3-[(3S or 3R)-4,4-difluoro-3-hydroxy-piperidine-1-carbonyl]-5,6-dihydro-4H-cyclopenta[c]pyrazol-1-yl]-1-[4-(2,3-dimethylphenyl)piperazin-1-yl]ethanone]
17 | 0.86 nM | Cc1c(C(F)F)cccc1N1CCN(C(=O)Cn2nc(C(=O)N3CCC(O)CC3)c3c2C[C@H]2C[C@@H]32)CC1 [Example 346, 1-(4-(3-(difluoromethyl)-2-methylphenyl)piperazin-1-yl)-2-((3bR,4aR)-3-(4-hydroxypiperidine-1-carbonyl)-3b,4,4a,5-tetahydro-1H-cyclopropa[3,4]cyclopenta[1,2-c]pyrazol-1-yl)ethanone]
18 | 13.9 nM | Cc1cccc(N2CCN(C(=O)Cn3nc(C(=O)N4CCCC(O)CC4)c4c3CCC4)CC2)c1C (stereo not shown) [Example 118]
19 | 0.94 nM | Cc1cccc(N2CCN(C(=O)Cn3nc(C(=O)N4CCN(CC(F)(F)F)CC4)c4c3C[C@H]3C[C@@H]43)CC2)c1C [Example 250, 1-[4-(2,3-dimethylphenyl)piperazin-1-yl]-2-{(3bR,4aR)-3-[4-(2,2,2-trifluoroethyl)piperazine-1-carbonyl]-3b,4,4a,5-tetrahydro-1H-cyclopropa[3,4]cyclopenta[1,2-c]pyrazol-1-yl}ethan-1-one]
